Measured values from paper PMC3951225, “Cytotoxic Sesquiterpene Lactones from Kauna lasiophthalma Griseb” (Scientia Pharmaceutica, 2014).

Assays:
Assay type in all cases: cell-based, human
JIMT-1 cells = assay: MTT cytotoxicity dose-response assay, JIMT-1; details: 72 h treatment, a/b/c = one, two, three or more dose-response curves
Protocol: (§1) The L56Br-C1 cell line was established at the Department of Oncology, Clinical Sciences, Lund University, Sweden. The JIMT-1 cell line was purchased from the German Collection of Microorganisms and Cell Cultures (Braunschweig, Germany) and the MCF-7, SK-BR-3, HCC1937, and MCF-10A cells were obtained from the American Tissue Type Culture Collection (Manassas, VA, USA). The cell lines were cultured as monolayers at 37°C in a humidified incubator with 5% CO2 in air. The MCF-10A cells have a population doubling time of 15 hours, the JIMT-1 cells 24 hours, and the other four cell lines around 35 hours.
(§2) The L56Br-C1, MCF-7, SK-BR-3, and HCC1937 cells were cultured as described by Holst et al. JIMT-1 cells were cultured in DMEM/Ham’s F12 medium supplemented with 10% fetal calf serum, non-essential amino acids (1 mM), insulin (10 μg/ml), penicillin (100 U/ml), and streptomycin (100 μg/ml). MCF-10A cells were maintained in RPMI 1640 medium supplemented with 10% heat-inactivated fetal calf serum, non-essential amino acids (1 mM), insulin (10 μg/ml), epidermal growth factor (20 ng/ml), cholera toxin (50 ng/ml), hydrocortisone (250 ng/ml), penicillin (100 U/ml), and streptomycin (100 μg/ml). The MCF-10A and JIMT-1 cell lines were sub-cultured twice a week, while the L56Br-C1, MCF-7, SK-BR-3, and HCC1937 cells were sub-cultured once a week with an additional change of growth medium once a week.
(§3) Stock solutions ([…]) of the compounds were made in 100% DMSO. These were further diluted in PBS to obtain the correct concentrations used for the MTT assay. Appropriate DMSO controls were used. In general, the highest DMSO concentration was 0.1%, however, when treating with 100 μM and starting from a […] in 100% DMSO, a final concentration of 1% DMSO was used as the control.
(§4) The MTT assay was performed as previously described. Briefly, the cells were trypsinized and counted in a hemocytometer. Aliquots of 180 μl cell suspensions containing 3000 (MCF-10A) and 6000 (MCF-7, SK-BR-3, JIMT-1, L56Br-C1, and HCC1937) cells were seeded in the wells of 96-well plates. Compounds were added 24 hours after seeding to allow the attachment of cells. A concentration range between 0.1 to 100 μM was used in the MTT assays and appropriate DMSO controls. At 72 h of drug treatment, 20 μl of MTT solution (5 mg/ml MTT in PBS) was added to each well and the 96-well plates were returned to the CO2 incubator for 1 hour. The MTT-containing medium was removed. The blue formazan product formed by the reduction in live attached cells was dissolved by adding 100 μl of 100% DMSO per well after removal of the MTT-containing medium. The plates were swirled gently at room temperature for 10 minutes to dissolve the precipitate. Absorbance was monitored at 540 nm in a Labsystems iEMS Reader MF (Labsystems Oy, Helsinki, Finland) using the DeltaSoft II v.4.14 software (Biometallics Inc., Princeton, NJ, USA). Dose-response curves were drawn based on the % of the control in Excel. The IC50 was deduced from the curves.

HCC1937 cells = assay: MTT cytotoxicity dose-response assay, HCC1937; details: 72 h treatment, a/b/c = one, two, three or more dose-response curves
Protocol: as §1, §2, §3, §4

MCF-7 cells = assay: MTT cytotoxicity dose-response assay, MCF-7; details: 72 h treatment, a/b/c = one, two, three or more dose-response curves
Protocol: as §1, §2, §3, §4

SK-BR-3 cells = assay: MTT cytotoxicity dose-response assay, SK-BR-3; details: Homo sapiens, SK-BR-3, 72 h, 72 h treatment, a/b/c = one, two, three or more dose-response curves
Protocol: as §1, §2, §3, §4

[1] = MTT cytotoxicity dose-response assay, MCF-10A (non-cancerous); details: human, MCF-10A cells (normal-like breast epithelial cell line), 72 h treatment, a/b/c = one, two, three or more dose-response curves
Protocol: as §1, §2, §3, §4

[2] = test system: breast cancer cell lines HCC1937, JIMT-1, L56Br-C1, MCF-7, and SK-BR-3; assay: MTT assay, panel of five breast cancer cell lines; details: for Anticancer activity / relative potency in words: breast cell lines, comparison among the tested compounds
Protocol: The anticancer activities of sesquiterpenes 1, 3, 6–9, 11, 12, 14, and 16 were assessed in five breast-cancer cell lines, HCC1937, JIMT-1, L56Br-C1, MCF-7, and SK-BR-3, and compared with the cytotoxicity in the breast-derived non-cancerous cell line MCF-10A using the MTT colorimetric assay. […] 16 is an unsaturated ester and differs in that respect from the other compounds, but the lower activity of 3 compared to the similar compounds was unexpected. Costunolide (1) differs from the eudesmane sesquiterpenes by having the unsaturated lactone fused with a macrocyclic system instead of a cyclohexane ring, and the tension of the lactone ring is likely to be lower in 1. […] The difference in the activities of 7 and 8 may depend on the higher lipophilicity of 8, facilitating its absorption into the cells. In 11 and 14, the presence of a second Michael acceptor function may influence the activity. […] MCF-7 has a normal wild type p53 gene, which the MCF-10A cells also have, while the others have a mutated p53.
as §3, §4

L56Br-C1 cells = assay: MTT cytotoxicity dose-response assay, L56Br-C1; details: 72 h treatment, a/b/c = one, two, three or more dose-response curves
Protocol: as §1, §2, §3, §4

MCF-10A cells = assay: MTT cytotoxicity dose-response assay, MCF-10A (non-cancerous); details: normal-like breast epithelial cell line, 72 h treatment, a/b/c = one, two, three or more dose-response curves
Protocol: as §1, §2, §3, §4

Work on `C=C(C(=O)OC)C1CCC2(C)C(O)CCC(=C)C2C1O` (stereo not shown) [Compound 16, baynol C] yielded an IC50 (JIMT-1 cells) of 23 µM, an IC50 (JIMT-1 cells; Homo sapiens, JIMT-1, 72 h) of 13 µM and an IC50 (HCC1937 cells; Homo sapiens, HCC1937, 72 h) of 24 µM. The IC50 (MCF-7 cells; Homo sapiens, MCF7, 72 h) was 27.4 ± 17.2 µM, the IC50 (SK-BR-3 cells) was 9.9 ± 3 µM and the IC50 at 72 h [1] was 29 µM. For the same compound, the “Anticancer activity / relative potency in words” value [2] was “lowest activity” and the IC50 (L56Br-C1 cells; Homo sapiens, 72 h) was 16 µM.
`C=C1C(=O)O[C@H]2[C@H]1CCC(C)=C1[C@@H](OC(C)=O)[C@H]3O[C@@]3(C)[C@@H]12` [Compound 12, 2β-acetoxy-3α,4α-epoxy-3,4-dihydrokauniolide] showed an IC50 (JIMT-1 cells) of 10.1 µM, an IC50 (JIMT-1 cells; Homo sapiens, JIMT-1, 72 h) of 7.1 µM and an IC50 (HCC1937 cells) of 7.8 µM. It also gave an IC50 (HCC1937 cells; Homo sapiens, HCC1937, 72 h) of 6 µM, an IC50 (MCF-7 cells) of 8.3 µM and an IC50 (MCF-7 cells; Homo sapiens, MCF7, 72 h) of 7.1 µM. For the same compound, the IC50 (SK-BR-3 cells) was 4.2 ± 1.1 µM, the IC50 (L56Br-C1 cells) was 10.1 µM and the IC50 (L56Br-C1 cells; Homo sapiens, 72 h) was 6 µM.
In the case of `C=C1C(=O)OC2C1CCC1(C)C(=O)C=CC(C)(O)C21` (stereo not shown) [Compound 11, 11,13-didehydrovulgarin], the IC50 (JIMT-1 cells) is reported as 13 µM, the IC50 (JIMT-1 cells; Homo sapiens, JIMT-1, 72 h) is reported as 10 µM and the IC50 (HCC1937 cells) is reported as 7.8 µM. It also gave an IC50 (HCC1937 cells; Homo sapiens, HCC1937, 72 h) of 4.8 µM, an IC50 (MCF-7 cells) of 18 µM and an IC50 (MCF-7 cells; Homo sapiens, MCF7, 72 h) of 10.1 µM. For the same compound, the IC50 (SK-BR-3 cells) was 4.2 ± 2.1 µM, the IC50 (MCF-10A cells) was 21 µM and the IC50 at 72 h [1] was 24 µM. For the same compound, the IC50 (L56Br-C1 cells; Homo sapiens, 72 h) was 3.6 µM.
`C=C1C(=O)O[C@@H]2/C=C(\C)CC/C=C(\C)CC[C@@H]12` [Compound 1, costunolide] gave an IC50 (JIMT-1 cells) of 6.3 µM, an IC50 (JIMT-1 cells; Homo sapiens, JIMT-1, 72 h) of 6.2 µM and an IC50 (HCC1937 cells) of 4.2 µM. The IC50 (HCC1937 cells; Homo sapiens, HCC1937, 72 h) was 2.2 µM, the IC50 (MCF-7 cells; Homo sapiens, MCF7, 72 h) was 5.3 ± 1.4 µM and the IC50 (SK-BR-3 cells) was 2 ± 1 µM. For the same compound, the IC50 at 72 h [1] was 20 µM, the IC50 ([2]; Homo sapiens, five breast cancer cell lines, read-out: IC50 values, range over the cancer cell lines) was 2 to 6.2 µM and the “Anticancer activity / relative potency in words” value [2] was “most active in all of the cell lines”. The IC50 (L56Br-C1 cells) was 4.8 µM and the IC50 (L56Br-C1 cells; Homo sapiens, 72 h) was 3.7 µM.
`C=C1C(=O)O[C@@H]2[C@H]3C(C)=CC(=O)C3=C(C)CC[C@@H]12` [Compound 14, dehydroleucodin] showed an IC50 (JIMT-1 cells) of 8.1 µM, an IC50 (JIMT-1 cells; Homo sapiens, JIMT-1, 72 h) of 7.5 µM and an IC50 (HCC1937 cells) of 5.2 µM. For the same compound, the IC50 (HCC1937 cells; Homo sapiens, HCC1937, 72 h) was 3 µM, the IC50 (MCF-7 cells) was 4.3 µM and the IC50 (MCF-7 cells; Homo sapiens, MCF7, 72 h) was 3.3 µM. The IC50 (SK-BR-3 cells) was 2.5 ± 0.4 µM, the IC50 (MCF-10A cells) was 23 µM and the IC50 at 72 h [1] was 20 µM. For the same compound, the IC50 (L56Br-C1 cells) was 10 µM and the IC50 (L56Br-C1 cells; Homo sapiens, 72 h) was 5.8 µM.
